Experimental data reported in the NIST ThermoML archive (doi:10.1016/j.jct.2011.02.018).

Assay: xn = mol fraction of the nth substance listed
Conditions: 101 kPa, Liquid; for viscosity: Concentric cylinders viscometry; for mass density: Vibrating tube method

COC(C)(C)C [2-methoxy-2-methylpropane] + CCCO
Conditions	mass density, 293.15 K [kg/m3]	mass density, 298.15 K [kg/m3]	mass density, 303.15 K [kg/m3]	mass density, 308.15 K [kg/m3]	viscosity, 293.15 K [mPa·s]	viscosity, 298.15 K [mPa·s]	viscosity, 303.15 K [mPa·s]	viscosity, 308.15 K [mPa·s]
x1 = 0.0126	802.92	798.92	794.86	790.76	2.139	1.886	1.676	1.494
x1 = 0.0219	802.2	798.21	794.13	790.02	2.069	1.832	1.631	1.456
x1 = 0.0298	801.64	797.61	793.53	789.4	2.014	1.79	1.594	1.424
x1 = 0.0403	800.81	796.7	792.61	788.45	1.948	1.735	1.548	1.386
x1 = 0.05	800.12	796.03	791.93	787.77	1.885	1.683	1.502	1.347
x1 = 0.0599	799.4	795.34	791.21	787.04	1.835	1.635	1.462	1.309
x1 = 0.0699	798.72	794.62	790.47	786.28	1.78	1.589	1.429	1.276
x1 = 0.0798	798.25	794.12	789.92	785.72	1.736	1.552	1.391	1.252
x1 = 0.09	797.26	793.05	788.85	784.63	1.67	1.492	1.338	1.203
x1 = 0.1003	796.41	792.28	788.08	783.85	1.627	1.459	1.301	1.181
x1 = 0.1495	793.03	788.85	784.61	780.3	1.412	1.275	1.151	1.042
x1 = 0.1999	789.56	785.28	780.94	776.55	1.234	1.119	1.016	0.9225
x1 = 0.25	786.15	781.8	777.38	772.92	1.089	0.9917	0.9045	0.8231
x1 = 0.3003	782.74	778.33	773.84	769.32	0.9663	0.8841	0.809	0.7398
x1 = 0.35	779.47	774.99	770.45	765.85	0.8694	0.7946	0.7291	0.6694
x1 = 0.4015	776.15	771.6	766.99	762.32	0.7809	0.721	0.6608	0.6082
x1 = 0.4585	772.51	767.88	763.21	758.45	0.6993	0.6452	0.5966	0.5495
x1 = 0.5002	769.91	765.22	760.49	755.68	0.6508	0.6047	0.5568	0.5119
x1 = 0.5505	766.88	762.1	757.3	752.42	0.5953	0.5528	0.5121	0.4715
x1 = 0.5994	763.94	759.14	754.28	749.34	0.5508	0.52	0.4831	0.4457
x1 = 0.6475	761.06	756.21	751.27	746.28	0.5181	0.4813	0.4499	0.4153
x1 = 0.7026	757.85	752.93	747.92	742.86	0.4767	0.4449	0.4145	0.3818
x1 = 0.7536	754.92	749.92	744.86	739.74	0.4509	0.4165	0.3944	0.3602
x1 = 0.8033	752.01	747.01	741.89	736.72	0.4202	0.3922	0.3655	0.3345
x1 = 0.8471	749.51	744.41	739.24	734.04	0.4014	0.375	0.3506	0.3255
x1 = 0.9007	746.4	741.27	736.06	730.79	0.3802	0.3537	0.3303	0.308
x1 = 0.9107	745.77	740.64	735.41	730.13	0.3705	0.3499	0.3277	0.302
x1 = 0.9185	745.32	740.18	734.94	729.65	0.3679	0.3536	0.3317	0.3014
x1 = 0.9282	744.76	739.61	734.37	729.07	0.3645	0.3411	0.3205	0.2934
x1 = 0.94	744.07	738.91	733.65	728.34	0.3597	0.3383	0.3153	0.295
x1 = 0.9493	743.55	738.35	733.09	727.78	0.3573	0.3241	0.3106	0.2879
x1 = 0.9599	742.94	737.74	732.47	727.15	0.3554	0.3246	0.3102	0.2939
x1 = 0.9698	742.37	737.19	731.91	726.58	0.349	0.329	0.3092	0.2843
x1 = 0.9796	741.82	736.64	731.35	726.01	0.3454	0.3252	0.3054	0.2803
x1 = 0.9882	741.32	736.14	730.84	725.49	0.344	0.3242	0.3046	0.2819
